Measurements from ChEMBL document CHEMBL5375981, “Enhanced Tumor Targeting and Penetration of Proteolysis-Targeting Chimeras through iRGD Peptide Conjugation: A Strategy for Precise Protein Degradation in Breast Cancer” (J Med Chem, 2023).
Values after ≈ are worked out from the molar mass of the structure shown. Active and inactive are the calls of the source. No cut-off for these calls is given here.

Key:
[1] = Solubility in distilled water measured for 30 mins by ultraviolet spectrophotometry analysis; format: physicochemical
[2] = Stability of compound in PBS containing 5% serum at 50 uM measured after 72 hrs by LC-MS analysis; format: physicochemical, cell-free; conditions: read-out: Stability
[3] = target: Bromodomain-containing protein 4 (Homo sapiens) (UniProt O60885); assay: Induction of BRD4 degradation in human MCF7 cells harboring low integrin alphaVbeta3 expression at 300 nM incubated for 12 hrs by immunofluorescence staining based confocal microscopic analysis; format: cell-based
[4] = Toxicity in BALB/C mouse xenografted with human MDA-MB-231 cells assessed as lung damage at 5 uM, iv administered every other day for 21 days and measured 37 days post treatment by H and E staining based assay; format: organism-based; conditions: in vivo, 1392 h, time 58 day
[5] = Toxicity in BALB/C mouse xenografted with human MDA-MB-231 cells assessed as adverse reactions at 5 uM, iv administered for 21 days and measured every 3 days; format: organism-based; conditions: in vivo, 504 h, time 21 day
[6] = target: Bromodomain-containing protein 4 (Homo sapiens) (UniProt O60885); assay: Induction of BRD4 degradation in human MCF7 cells harboring low integrin alphaVbeta3 expression at 300 nM measured at 16 hrs by Western blot analysis; format: cell-based
[7] = Toxicity in BALB/C mouse xenografted with human MDA-MB-231 cells assessed as effect on spleen weight at 5 uM, iv administered every other day for 21 days; format: organism-based; conditions: in vivo, 504 h, time 21 day
[8] = Toxicity in BALB/C mouse xenografted with human MDA-MB-231 cells assessed as effect on lung weight at 5 uM, iv administered every other day for 21 days; format: organism-based; conditions: in vivo, 504 h, time 21 day
[9] = target: Bromodomain-containing protein 4 (Homo sapiens) (UniProt O60885); assay: Induction of BRD4 degradation in human L02 cells lacking integrin alphaVbeta3 expression at 300 nM incubated for 12 hrs by immunofluorescence staining based confocal microscopic analysis; format: cell-based
[10] = target: Bromodomain-containing protein 4 (Homo sapiens) (UniProt O60885); assay: Induction of BRD4 degradation in human L02 cells lacking integrin alphaVbeta3 expression at 0.33 uM incubated for 24 hrs by Western blot analysis relative to control; format: cell-based
[11] = target: Bromodomain-containing protein 4 (Homo sapiens) (UniProt O60885); assay: Induction of BRD4 degradation in human MDA-MB-231 cells harboring high integrin alphaVbeta3 expression at 1 uM incubated for 12 hrs by immunofluorescence staining based confocal microscopic analysis; format: cell-based
[12] = target: Bromodomain-containing protein 4 (Homo sapiens) (UniProt O60885); assay: Induction of BRD4 degradation in human MCF7 cells harboring low integrin alphaVbeta3 expression at 0.04 uM incubated for 24 hrs by Western blot analysis; format: cell-based
[13] = target: Bromodomain-containing protein 4 (Homo sapiens) (UniProt O60885); assay: Induction of BRD4 degradation in human MCF7 cells harboring low integrin alphaVbeta3 expression at 0.11 uM incubated for 24 hrs by Western blot analysis relative to control; format: cell-based
[14] = target: Bromodomain-containing protein 4 (Homo sapiens) (UniProt O60885); assay: Induction of BRD4 degradation in human MCF7 cells harboring low integrin alphaVbeta3 expression at 300 nM measured at 20 hrs by Western blot analysis relative to control; format: cell-based
[15] = target: Bromodomain-containing protein 4 (Homo sapiens) (UniProt O60885); assay: Induction of BRD4 degradation in human MDA-MB-231 cells harboring high integrin alphaVbeta3 expression at 300 nM measured at 24 hrs by Western blot analysis; format: cell-based
[16] = Toxicity in BALB/C mouse xenografted with human MDA-MB-231 cells assessed as weight loss at 5 uM, iv administered for 21 days and measured every 3 days; format: organism-based; conditions: in vivo, 504 h, time 21 day
[17] = Toxicity in BALB/C mouse xenografted with human MDA-MB-231 cells assessed as effect on kidney weight at 5 uM, iv administered every other day for 21 days; format: organism-based; conditions: in vivo, 504 h, time 21 day
[18] = target: Bromodomain-containing protein 4 (Homo sapiens) (UniProt O60885); assay: Induction of BRD4 degradation in human MDA-MB-231 cells harboring high integrin alphaVbeta3 expression at 0.11 uM incubated for 24 hrs by Western blot analysis; format: cell-based
MCF7 [19] = assay: Antiproliferative activity against human MCF7 cells harboring low integrin alphaVbeta3 expression assessed as inhibition of cell growth incubated for 72 hrs by CCK-8 assay; format: functional, cell-based; conditions: MCF7, 72 h
L02 [20] = assay: Antimigratory activity against human L02 cells lacking integrin alphaVbeta3 expression assessed as inhibition of cell migration at 200 nM incubated for 48 hrs by crystal violet staining based transwell assay; format: functional
[21] = Antitumor activity against patient-derived Breast cancer organoid assessed as inhibition of cell growth incubated for approximately 3 to 5 days by CCK-8 assay; format: functional, tissue-based; conditions: Homo sapiens
[22] = Toxicity in BALB/C mouse xenografted with human MDA-MB-231 cells assessed as effect on liver weight at 5 uM, iv administered every other day for 21 days; format: organism-based; conditions: in vivo, 504 h, time 21 day
[23] = target: Bromodomain-containing protein 4 (Homo sapiens) (UniProt O60885); assay: Induction of BRD4 degradation in human L02 cells lacking integrin alphaVbeta3 expression at 300 nM measured at 24 hrs by Western blot analysis relative to control; format: cell-based
MDA-MB-231 [24] = assay: Antiproliferative activity against human MDA-MB-231 cells harboring high integrin alphaVbeta3 expression assessed as inhibition of cell growth incubated for 72 hrs by CCK-8 assay; format: functional, cell-based; conditions: MDA-MB-231, 72 h
L02 [25] = assay: Antiproliferative activity against human L02 cells harboring minimal integrin alphaVbeta3 expression assessed as inhibition of cell growth incubated for 72 hrs by CCK-8 assay; format: functional, cell-based; conditions: L02, 72 h
[26] = Toxicity in BALB/C mouse xenografted with human MDA-MB-231 cells assessed as effect on heart weight at 5 uM, iv administered every other day for 21 days; format: organism-based; conditions: in vivo, 504 h, time 21 day
MDA-MB-231 [27] = assay: Antitumor activity against human MDA-MB-231 cells xenografted in BALB/C nude mouse assessed as tumor growth inhibition at 5 uM, iv administered every other day and measured after 21 days by vernier caliper method relative to control; format: functional; conditions: MDA-MB-231, 504 h, time 21 day, read-out: TGI
MCF7 [28] = assay: Antimigratory activity against human MCF7 cells harboring low integrin alphaVbeta3 expression assessed as inhibition of cell migration at 200 nM incubated for 48 hrs by crystal violet staining based transwell assay; format: functional
MDA-MB-231 [29] = assay: Antitumor activity against human MDA-MB-231 cells xenografted in BALB/C nude mouse assessed as disruption of tumor blood vessel wall at 5 uM, iv administered every other day and measured after 21 days by H and E staining based assay; format: functional, organism-based; conditions: time 21.0 day
[30] = target: Bromodomain-containing protein 4 (Homo sapiens) (UniProt O60885); assay: Induction of BRD4 degradation in human L02 cells lacking integrin alphaVbeta3 expression at 0.01 to 1 uM incubated for 24 hrs by Western blot analysis; format: cell-based; conditions: dose 0.01-1 µM
[31] = target: Bromodomain-containing protein 4 (Homo sapiens) (UniProt O60885); assay: Induction of BRD4 degradation in human MDA-MB-231 cells harboring high integrin alphaVbeta3 expression at 300 nM incubated for 16 to 20 hrs by Western blot analysis; format: cell-based; conditions: time 16-20 hrs
[32] = target: Bromodomain-containing protein 4 (Homo sapiens) (UniProt O60885); assay: Induction of BRD4 degradation in human MCF7 cells harboring low integrin alphaVbeta3 expression at 0.01 to 1 uM incubated for 24 hrs by Western blot analysis; format: cell-based; conditions: dose 0.01-1 µM
[33] = Drug release in PBS assessed as increase in (2S)-1-((R)-2-(tert-butyl)-17-((S)-4-(4-chlorophenyl)-2,3,9-trimethyl-6H-thieno[3,2-f][1,2,4]triazolo[4,3-a][1,4]diazepin-6-yl)-4,16-dioxo-6,9,12-trioxa-3,15-diazaheptadecanoyl)-4-hydroxy-N-((S)-1-(4-(4-methylthiazol-5-yl)phenyl)ethyl)pyrrolidine-2-carboxamide concentration at 50 uM in presence of GSH by LC-MS analysis; format: ADME; conditions: buffer, TDE = time-dependent effect

**Q.** With `Cc1ncsc1-c1ccc([C@H](C)NC(=O)[C@@H]2C[C@@H](OC(=O)CCC(=O)N[C@@H](Cc3c[nH]cn3)C(=O)N[C@@H](Cc3c[nH]cn3)C(=O)NCC(=O)N[C@@H](CCCNC(=N)N)C(=O)NCC(=O)N[C@@H](CC(=O)O)C(=O)O)CN2C(=O)[C@@H](NC(=O)COCCOCCOCCNC(=O)C[C@@H]2N=C(c3ccc(Cl)cc3)c3c(sc(C)c3C)-n3c(C)nnc32)C(C)(C)C)cc1` as the compound, how does the solubility at 0.5 h [1] read?
**A.** The solubility at 0.5 h was > 10 mM.

**Q.** And the remaining at 72 h, 50 µM [2]?
**A.** Its remaining at 72 h, 50 µM is 10.2%.

**Q.** For `Cc1ncsc1-c1ccc([C@H](C)NC(=O)[C@@H]2C[C@@H](O)CN2C(=O)[C@@H](NC(=O)COCCOCCOCCNC(=O)C[C@@H]2N=C(c3ccc(Cl)cc3)c3c(sc(C)c3C)-n3c(C)nnc32)C(C)(C)C)cc1`, which Activity [3] is on record?
**A.** The Activity was “Active”.

**Q.** And the Activity [4]?
**A.** Its Activity is “Toxic”.

**Q.** What about the Activity [5] of the same compound?
**A.** Its Activity is “Non-Toxic”.

**Q.** And the Activity [6]?
**A.** Its Activity is “Active”.

**Q.** What about the Activity [7] of the same compound?
**A.** Its Activity is “Non-Toxic”.

**Q.** What about the Activity [8] of the same compound?
**A.** The Activity was “Non-Toxic”.

**Q.** What about the Activity [9] of the same compound?
**A.** The Activity was “Active”.

**Q.** And the Activity [10]?
**A.** The Activity was 100%.

**Q.** And the Activity [11]?
**A.** The Activity was “Active”.

**Q.** And the solubility at 0.5 h [1]?
**A.** The solubility at 0.5 h was 29.5 mM (≈ 30 mg/mL).

**Q.** What about the Activity [12] of the same compound?
**A.** The Activity was “Active”.

**Q.** And the Activity [13]?
**A.** The Activity was 100%.

**Q.** And the Activity [14]?
**A.** The Activity was 100%.

**Q.** What about the Activity [15] of the same compound?
**A.** Its Activity is “Active”.

**Q.** What about the Activity [16] of the same compound?
**A.** Its Activity is “Non-Toxic”.

**Q.** And the Activity [17]?
**A.** Its Activity is “Non-Toxic”.

**Q.** And the Activity [18]?
**A.** The Activity was “Active”.

**Q.** What about the IC50 (MCF7 [19]) of the same compound?
**A.** The IC50 was 0.03 µM.

**Q.** What about the Activity (L02 [20]) of the same compound?
**A.** The Activity was “Active”.

**Q.** What about the IC50 [21] of the same compound?
**A.** The IC50 was 2.1 µM.

**Q.** What about the Activity [22] of the same compound?
**A.** Its Activity is “Non-Toxic”.

**Q.** And the Activity [23]?
**A.** The Activity was 100%.

**Q.** And the IC50 (MDA-MB-231 [24])?
**A.** Its IC50 is 0.09 µM.

**Q.** And the IC50 (L02 [25])?
**A.** The IC50 was 0.4 µM.

**Q.** And the Activity [26]?
**A.** The Activity was “Non-Toxic”.

**Q.** What about the inhibition in vivo at 5 µM (MDA-MB-231 [27]) of the same compound?
**A.** The inhibition in vivo at 5 µM was 36.3%.

**Q.** What about the Activity (MCF7 [28]) of the same compound?
**A.** Its Activity is “Active”.

**Q.** And the Activity (MDA-MB-231 [29])?
**A.** Its Activity is “inactive”.

**Q.** Which Activity [3] does the source give for `Cc1ncsc1-c1ccc([C@H](C)NC(=O)[C@@H]2C[C@@H](OC(=O)OCCSSCCOC(=O)CCC(=O)N[C@@H](CCCNC(=N)N)C(=O)NCC(=O)N[C@@H](CC(=O)O)C(=O)O)CN2C(=O)[C@@H](NC(=O)COCCOCCOCCNC(=O)C[C@@H]2N=C(c3ccc(Cl)cc3)c3c(sc(C)c3C)-n3c(C)nnc32)C(C)(C)C)cc1` here?
**A.** Its Activity is “inactive”.

**Q.** And the Activity [30]?
**A.** The Activity was “inactive”.

**Q.** And the Activity [31]?
**A.** Its Activity is “Active”.

**Q.** And the Activity [32]?
**A.** Its Activity is “inactive”.

**Q.** What about the Activity [9] of the same compound?
**A.** Its Activity is “inactive”.

**Q.** What about the Drug metabolism [33] of the same compound?
**A.** Its Drug metabolism is “Tde”.

**Q.** What about the Activity [11] of the same compound?
**A.** The Activity was “Active”.

**Q.** And the solubility at 0.5 h [1]?
**A.** The solubility at 0.5 h was > 10 mM.

**Q.** What about the Activity [18] of the same compound?
**A.** Its Activity is “Active”.

**Q.** And the IC50 (MCF7 [19])?
**A.** The IC50 was 0.19 µM.

**Q.** And the IC50 (MDA-MB-231 [24])?
**A.** The IC50 was 0.19 µM.

**Q.** And the IC50 (L02 [25])?
**A.** The IC50 was 0.98 µM.

**Q.** What about the remaining at 72 h, 50 µM [2] of the same compound?
**A.** Its remaining at 72 h, 50 µM is 94.6%.
